Consider 16 compounds from PubChem BioAssay (NCI).

Structures are written as SMILES.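 Results reflect a 48-hour exposure of cells in 96-well plates to compound at five concentrations. TGI denotes the concentration required for complete inhibition of growth.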

Some test systems named below: U251 CNS; SN12C renal; HOP-92 NSCLC; CAKI-1 renal; KM12 colon; UACC-62 melanoma; A549 NSCLC; HOP-62 NSCLC; MCF7 breast; HCC-2998 colon.
What all share (test): growth of human tumour cells (NCI), 48 h

Regarding `CCN(CC)/N=C\c1c2ccccc2cc2ccccc12`, the TGI with U251 CNS is over 100 µM; in the experiment on SN12C renal, over 100 µM; in the experiment on HOP-92 NSCLC, 61.1 µM; in the experiment with CAKI-1 renal it was over 100 µM; in the experiment on KM12 colon it was over 100 µM; with UACC-62 melanoma, over 100 µM. In addition, the TGI in the experiment on A549 NSCLC was over 100 µM.
Turning to `COc1ccc(NC(=O)CSC(=O)c2ccccc2)c(SCCSSCCSc2cc(OC)ccc2NC(=O)CSC(=O)c2ccccc2)c1`, the TGI in the experiment on U251 CNS, in the experiment on HOP-62 NSCLC, in the experiment with SN12C renal, with HOP-92 NSCLC, in the experiment on CAKI-1 renal and in the experiment with KM12 colon was over 100 µM throughout. Further, the TGI in the experiment on UACC-62 melanoma, in the experiment with MCF7 breast and with A549 NSCLC was over 100 µM each time.
Regarding `COc1cc(C2c3cccc4cccc(c34)C3CCC(=O)N32)cc(OC)c1O` (stereo not drawn), the TGI in the experiment with U251 CNS, in the experiment with HOP-62 NSCLC, with SN12C renal, in the experiment on HOP-92 NSCLC, in the experiment with KM12 colon and with UACC-62 melanoma was over 50 µM each time. In addition, the TGI in the experiment on MCF7 breast and in the experiment with A549 NSCLC was over 50 µM in each case.
As for `COC(=O)N[C@@H]1C[C@H]2CC[C@]1(O[Si](C(C)C)(C(C)C)C(C)C)C(=O)C2`, the TGI was 46.4 µM in the experiment on HOP-62 NSCLC; over 100 µM with SN12C renal; 70.6 µM with HOP-92 NSCLC; over 100 µM in the experiment on CAKI-1 renal; 52.1 µM in the experiment on KM12 colon; 44.7 µM with UACC-62 melanoma. In addition, the TGI in the experiment on MCF7 breast is over 100 µM; in the experiment with A549 NSCLC, 55.7 µM.
Consider `[N-]=[N+]=Nc1cc(=O)[nH]c2ccccc12`, for which the TGI in the experiment with U251 CNS, with HOP-62 NSCLC, in the experiment with SN12C renal, in the experiment on HOP-92 NSCLC, in the experiment with CAKI-1 renal and with KM12 colon was over 100 µM in each case. Further, the TGI in the experiment with UACC-62 melanoma, in the experiment with MCF7 breast and in the experiment on A549 NSCLC was over 100 µM each time.
Regarding `O=C1C(Cl)N(c2ccc([N+](=O)[O-])cc2)C1c1c[nH]c2ccccc12` (stereo not drawn), the TGI in the experiment with U251 CNS, with HOP-62 NSCLC, with SN12C renal, in the experiment on HOP-92 NSCLC, in the experiment with KM12 colon and in the experiment on UACC-62 melanoma was over 100 µM each time. In the experiment on A549 NSCLC, this compound came in with a TGI of over 100 µM.
Turning to `N=C(N)SCc1nc(-c2ccc(Cl)cc2)no1`, the TGI in the experiment on U251 CNS is 78.8 µM; in the experiment with HOP-62 NSCLC, over 100 µM; in the experiment with SN12C renal it was 37.5 µM; in the experiment with HOP-92 NSCLC, 77.6 µM; in the experiment on CAKI-1 renal, 27.4 µM; with KM12 colon it was over 100 µM. Moreover, the TGI is 24.4 µM with UACC-62 melanoma, 30.1 µM in the experiment on MCF7 breast and over 100 µM in the experiment with A549 NSCLC.
For the compound `O=C1Sc2ccccc2C(=O)N2CCSC12` (stereo not drawn), the TGI in the experiment on U251 CNS, in the experiment on HCC-2998 colon, with HOP-62 NSCLC, in the experiment with SN12C renal, in the experiment with HOP-92 NSCLC and in the experiment on KM12 colon was over 100 µM each time. Moreover, the TGI in the experiment on UACC-62 melanoma was over 100 µM.
For `COC(=O)/C=C1\C(CO[Si](C)(C)C(C)(C)C)OC(n2cc(C)c(=O)n(C)c2=O)C1O[Si](C)(C)C(C)(C)C` (stereo not drawn), the TGI in the experiment on U251 CNS, in the experiment with HOP-62 NSCLC, in the experiment with SN12C renal, with HOP-92 NSCLC, with KM12 colon and in the experiment with UACC-62 melanoma was over 100 µM throughout. The TGI with MCF7 breast and with A549 NSCLC was over 100 µM each time.
For the compound `CCSC12OC3(CCCCCN3C1=O)C1C(=O)N(c3ccccc3)C(=O)C12` (stereo not drawn), the TGI in the experiment with U251 CNS, in the experiment with SN12C renal, in the experiment on HOP-92 NSCLC, in the experiment with CAKI-1 renal, in the experiment with KM12 colon and in the experiment with UACC-62 melanoma was over 100 µM each time. In the experiment on A549 NSCLC, the TGI was over 100 µM.
For `COc1cc2nc(-c3cccs3)nc(N3CCN(c4ccccc4)CC3)c2cc1OC`, the TGI with U251 CNS, in the experiment on HOP-62 NSCLC, in the experiment with SN12C renal, with HOP-92 NSCLC, in the experiment on CAKI-1 renal and in the experiment with KM12 colon was over 100 µM in each case. The TGI in the experiment with UACC-62 melanoma, with MCF7 breast and with A549 NSCLC was over 100 µM in each case.
Take `CCOC(=O)Cc1[nH]c(C(=O)c2ccccc2)cc1C(=O)c1ccccc1`: the TGI in the experiment on U251 CNS is over 100 µM; in the experiment on HCC-2998 colon, over 100 µM; in the experiment on HOP-62 NSCLC, 51.7 µM; in the experiment on SN12C renal, over 100 µM; in the experiment with KM12 colon, over 100 µM; in the experiment with UACC-62 melanoma, over 100 µM. Moreover, the TGI was over 10 µM in the experiment on MCF7 breast and 66.8 µM with A549 NSCLC.
On to `CC1(C)CCCCCC(O)C(O)CCC(C)(C)C1=O` (stereo not drawn), for which the TGI with U251 CNS, in the experiment on HOP-62 NSCLC, with SN12C renal, in the experiment with HOP-92 NSCLC, in the experiment on CAKI-1 renal and in the experiment on KM12 colon was over 100 µM throughout. Moreover, the TGI in the experiment on UACC-62 melanoma, with MCF7 breast and with A549 NSCLC was over 100 µM throughout.
As to `CCCN=C1NC(C)=CSC(Nc2ccccc2)=C1C#N`, the TGI in the experiment with U251 CNS, in the experiment with HOP-62 NSCLC, with SN12C renal, in the experiment on CAKI-1 renal, in the experiment on KM12 colon and in the experiment with UACC-62 melanoma was over 100 µM throughout. The TGI in the experiment with MCF7 breast and in the experiment with A549 NSCLC was over 100 µM throughout.
Take `Oc1ccc(-c2nc3cc(C(F)(F)F)ccc3s2)cc1`: the TGI turned out to be 30.5 µM with U251 CNS; 32.6 µM in the experiment with SN12C renal; 29.1 µM in the experiment on CAKI-1 renal; 27.8 µM in the experiment on KM12 colon; 27.2 µM in the experiment with UACC-62 melanoma; 23.3 µM with MCF7 breast. In the experiment with A549 NSCLC, this compound showed a TGI of 29.7 µM.
For the compound `CC(C)(C)OC(=O)N1C(=O)C2CCCC21` (stereo not drawn), the TGI in the experiment with U251 CNS, in the experiment on HCC-2998 colon, in the experiment on HOP-62 NSCLC, in the experiment with SN12C renal, in the experiment with HOP-92 NSCLC and in the experiment with KM12 colon was over 100 µM each time. Also, the TGI in the experiment on UACC-62 melanoma and in the experiment on A549 NSCLC was over 100 µM in each case.
